Laboratory results taken from PMC4193996 (Journal of Experimental & Clinical Cancer Research : CR, 2014).

Columns and labels:
[1] = biological target: human recombinant β2 adrenergic receptor (Homo sapiens, UniProt P07550); test: β2 adrenergic receptor inhibition assay; format: binding; conditions: read-out: β2 adrenergic % inh @1 μM
Description: hEGR study and the M2 and the β2 receptor inhibition assay were performed as previously reported.
The new G-quadruplex ligands were designed in an attempt to obtain molecules with improved toxicological and on-target profiles, but maintaining the same favorable chemical and pharmacological features of the lead compound 1. With the aim of selecting the best variants, a step by step comparative analysis of their off- and on-target properties was performed. Initially the new molecules were tested for their ability to interact with and inhibit the human recombinant β2 adrenergic and M2 muscarinic receptors, and to reduce the hERG tail current in a patch clamp assay. […] Therefore, we might expect that the new ligands would impair cardiac functionality to a lesser extent than the lead molecule does.

BJ-EHLT fibroblasts = test: γ-H2AX/PCNA co-immunostaining (replication-dependent DNA damage); format: cell-based, human; conditions: 24 hrs
Description: Cells were fixed in 2% formaldehyde and permeabilized in 0.25% Triton X100 in PBS for 5 min at room temperature. For immunolabeling, cells were incubated with primary antibody, then washed in PBS and incubated with the secondary antibodies. The following primary antibodies were used: pAb and mAb anti-TRF1(Abcam Ltd.; Cambridge UK); mAb (Upstate, Lake Placid, NY) and pAb anti-γH2AX (Abcam); mAb anti-PCNA (Sigma Chemicals, Milano, Italy). The following secondary antibody were used: TRITC conjugated Goat anti Rabbit, FITC conjugated Goat anti Mouse (Jackson ImmunoResearch Europe Ltd., Suffolk, UK). Fluorescence signals were recorded by using a Leica DMIRE2 microscope equipped with a Leica DFC 350FX camera and elaborated by a Leica FW4000 deconvolution software (Leica, Solms, Germany). This system permits to focus single planes inside the cell generating 3D highresolution images. For quantitative analysis of γH2AX positivity, 200 cells on triplicate slices were scored. For TIFs analysis, in each nucleus a single plane was analyzed and at least 50 nuclei per sample were scored.
Figure 2 DNA damage activation at telomeres. BJ-EHLT fibroblasts were treated for 24 hrs with compound 1 and the indicated ligands at the doses 0.1 (light-grey bars) and 0.5 μM (dark-grey bars). […] Cells with four or more γ-H2AX/TRF1 foci were scored as TIF positive. […]

human recombinant β2 adrenergic receptor, sequence (P07550 whole entry): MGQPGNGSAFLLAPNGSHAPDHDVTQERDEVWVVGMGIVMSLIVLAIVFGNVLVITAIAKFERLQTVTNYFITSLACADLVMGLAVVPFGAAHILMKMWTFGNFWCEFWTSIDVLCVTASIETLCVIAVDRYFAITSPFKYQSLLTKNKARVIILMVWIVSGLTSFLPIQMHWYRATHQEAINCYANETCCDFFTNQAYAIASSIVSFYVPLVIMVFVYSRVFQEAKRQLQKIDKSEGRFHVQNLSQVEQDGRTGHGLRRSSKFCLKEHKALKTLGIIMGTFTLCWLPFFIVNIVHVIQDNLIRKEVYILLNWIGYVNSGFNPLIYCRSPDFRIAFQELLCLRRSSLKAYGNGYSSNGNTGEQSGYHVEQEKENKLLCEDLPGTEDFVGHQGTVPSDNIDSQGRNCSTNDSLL

inhibition at 1 µM [1]: 2%
SMILES: CC(=O)NCC#Cc1ccc2c3cccc4c3c([n+](C)c2c1)-c1ccccc1N4C [Compound 8]
γ-H2AX foci formation relative to PCNA status (BJ-EHLT fibroblasts): almost exclusively restricted to PCNA-positive
